Test results from patent US20200383946A1, “LIPOIC ACID FORMULATIONS” (Aciont Inc., priority 2019, published 2020).

Experiment: physchem
Assay type: physicochemical
Conditions: aqueous buffer, solubility of DHLA
From the text: Dihydrolipoic acid (DHLA) was obtained from Sigma (Cat #T8260).
Again, the PBS helped maintain the pH within a suitable pH range.

solubility: > 76 mg/mL
Structure (SMILES): O=C(O)CCCC[C@@H](S)CCS (racemic) [DHLA, Dihydrolipoic acid]
